{"source": "patent US20150126603A1", "about": "“TREATMENT OF POULTRY, PIGS OR FISH FOR REDUCING THE FEED CONVERSION RATIO OR INCREASING THEIR BODYWEIGHT GAIN” (TAMINCO, priority 2012, published 2015)", "key": {"broiler chickens [1]": {"system": "broiler chickens", "conditions": "cited from earlier work"}, "chickens": {"system": "chickens", "conditions": "22 mmol/kg bodyweight orally twice a day for five days; cited from earlier work"}, "carps": {"system": "carps", "description": "A group of 24 carps were distributed over 12 aquaria with 2 fish each. All fish were previously housed in identical conditions, and fed the same diet as the control group in the trial. Every other aquarium was attributed to either a control diet or that control diet supplemented with 500 mg β-alanine per kg. Feeding was done at 1.5% of the body weight, during 2 feeding times/day. To increase the level of oxidative stress, the carps were kept at 27° C. (4° C. above the advised temperature).\nThe change in bodyweight after the 14 day feeding experiment was measured per fish, but pooled per aquarium as the experimental unit."}, "Ross 308 chickens": {"system": "Ross 308 chickens", "description": "A group of 252 Ross 308 chickens were randomly distributed over 14 pens with 18 animals each. All chickens were previously housed in identical conditions, and fed the same diet as the control group in the trial. Every other pen was attributed to either a control diet or that control diet supplemented with 500 mg β-alanine per kg (=595 mg or 6.7 mmol β-alanine per kg dry weight). Water was freely available from drinking cups, and animals were fed ad libitum. The control diet was a commercial broiler diet (Vanden Avenne, Braadkip 114 MB) with 4% corn oil added to increase the level of oxidative stress, as used in earlier studies (Kalmar et al., 2011).\nFrom the age of 24 days to the age of 48 days, the change in bodyweight was measured per bird, but pooled per pen as the experimental unit. At 42 days of age, one male bird per pen was euthanized by intravenous injection of sodium pentobarbital. From the breast and thigh muscle, a sample was dissected and stored airtight at −20° C. until analysis. The breast muscle sample was taken at about one third from the distal end of the breast."}, "pigs [2]": {"system": "pigs", "description": "At 9 weeks of age, 48 pigs (24 gilts and 24 chirurgical castrated barrows) were divided randomly into groups of four pigs of the same gender. Each group was housed in a separate pen resulting in six pens of four gilts and six pens of four barrows. All pigs were fed the same commercial diet and for three of the six pens of gilts and three of the six pens of barrows their diet was supplemented with 500 mg β-alanine per kg (=568 mg or 6.4 mmol β-alanine per kg dry weight). Water was freely available and the animals were fed ad libitum. After 6 weeks (age of 15 weeks) all animals were euthanized by natrium-pentobarbital."}, "pigs [3]": {"system": "pigs", "conditions": "cited from earlier work"}, "Japanese flounders": {"system": "Japanese flounders", "conditions": "8.9 g/kg of β-alanine in diet; cited from earlier work"}, "broiler chickens [4]": {"system": "broiler chickens", "conditions": "0.5% of carnosine in broiler feed; cited from earlier work"}, "[5]": {"conditions": "0.5% of β-alanine in feed for 4 weeks"}, "[6]": {"conditions": "1 and 2% of β-alanine in feed for 4 weeks"}, "[7]": {"conditions": "500 mg/kg beta-alanine in diet, 14 days"}, "[8]": {"conditions": "500 mg/kg beta-alanine in diet, 14 days, 27° C."}, "[9]": {"conditions": "500 mg/kg beta-alanine in diet, between 24 and 42 days of age"}, "[10]": {"conditions": "0.225% of β-alanine in pig diet"}, "[11]": {"conditions": "β-alanine in combination with histidine"}}, "note": "Where two headings read alike, the source gives them in different places."}
{"smiles": "NCCC(=O)O", "note": "[Beta-alanine, β-alanine]", "values": [{"measurement": "bodyweight gain", "setting": "broiler chickens [1]; [5]", "value": "no significant changes"}, {"measurement": "feed conversion ratio", "setting": "broiler chickens [1]; [5]", "value": "no significant changes"}, {"measurement": "bodyweight gain", "setting": "broiler chickens [1]; [6]", "value": "decreased significantly"}, {"measurement": "feed conversion ratio", "setting": "broiler chickens [1]; [6]", "value": "increased"}, {"measurement": "bodyweight gain", "setting": "chickens", "value": "also decreased"}, {"measurement": "feed consumption", "setting": "chickens", "value": "also decreased"}, {"measurement": "feed conversion ratio", "setting": "chickens", "value": "decreased"}, {"measurement": "Average feed intake", "setting": "carps; [7]", "value": 44.1, "unit": "g"}, {"measurement": "feed conversion ratio", "setting": "carps; [7]", "value": "2.7 g:g"}, {"measurement": "Average weight gain", "setting": "carps; [8]", "value": 19.0, "unit": "g"}, {"measurement": "Final bodyweight", "setting": "carps; [8]", "value": 230.1, "unit": "g"}, {"measurement": "Initial bodyweight", "setting": "carps; baseline, 500 mg/kg group", "value": 211.1, "unit": "g"}, {"measurement": "Average daily gain", "setting": "Ross 308 chickens; [9]", "value": 108, "unit": "g"}, {"measurement": "Final bodyweight", "setting": "Ross 308 chickens; [9]", "value": 2.874, "unit": "kg"}, {"measurement": "bodyweight at slaughter vs control", "setting": "Ross 308 chickens; 500 mg/kg β-alanine in diet", "value": "tended to have a higher bodyweight at slaughter"}, {"measurement": "bodyweight gain vs control", "setting": "Ross 308 chickens; 500 mg/kg β-alanine in diet", "value": "tended to have a higher bodyweight gain"}, {"measurement": "Initial bodyweight", "setting": "Ross 308 chickens; baseline at 24 days of age, 500 mg/kg group", "value": 1.362, "unit": "kg"}, {"measurement": "Bodyweight gain over 6 weeks", "setting": "pigs [2]; 500 mg/kg beta-alanine in diet, 9 to 15 weeks of age", "value": 25.4}, {"measurement": "Final bodyweight", "setting": "pigs [2]; 500 mg/kg beta-alanine in diet, 15 weeks of age", "value": 44.1, "unit": "kg"}, {"measurement": "bodyweight at slaughter vs control", "setting": "pigs [2]; 500 mg/kg β-alanine in diet", "value": "tend to have a higher bodyweight at slaughter"}, {"measurement": "bodyweight gain vs control", "setting": "pigs [2]; 500 mg/kg β-alanine in diet", "value": "tended to have a higher bodyweight gain"}, {"measurement": "overall growth of the piglets", "setting": "pigs [2]; 500 mg/kg β-alanine in diet", "value": "increases the overall growth"}, {"measurement": "death or illness during the trial", "setting": "pigs [2]; 500 mg/kg β-alanine in diet, 6 weeks", "value": "No animals died or became ill"}, {"measurement": "Initial bodyweight", "setting": "pigs [2]; baseline at 9 weeks of age, 500 mg/kg group", "value": 18.7, "unit": "kg"}, {"measurement": "bodyweight gain", "setting": "pigs [3]; [10]", "value": "decreased somewhat"}, {"measurement": "feed conversion ratio", "setting": "pigs [3]; [10]", "value": "decreased somewhat"}, {"measurement": "bodyweight gain", "setting": "pigs [3]; [11]", "value": "decreased even more"}, {"measurement": "feed conversion ratio", "setting": "pigs [3]; [11]", "value": "increased to become higher than the control"}, {"measurement": "bodyweight gain", "setting": "Japanese flounders", "value": "increased somewhat but not significantly"}, {"measurement": "feed conversion ratio", "setting": "Japanese flounders", "value": "increased significantly"}]}
{"smiles": "NCCC(=O)N[C@@H](Cc1c[nH]cn1)C(=O)O", "note": "[carnosine, β-alanyl-L-histidine]", "values": [{"measurement": "chicken meat quantity and quality", "setting": "broiler chickens [4]", "value": "improve"}, {"measurement": "feed conversion ratio", "setting": "broiler chickens [4]", "value": "improved but not statistically significantly"}, {"measurement": "weight gain", "setting": "broiler chickens [4]", "value": "improved but not statistically significantly"}]}
